Counter-ions that a name gives are not always drawn.
molecular target: T1, BACE1 (Homo sapiens, UniProt P56817); test: Cellular Aβ-lowering assay b) (Abeta 40 AlphaLISA Assay); format: cell-based; conditions: cellular assay b): HEK293 APP cells, Aβ40 in supernatant by AlphaLISA after 18-20 hrs; read-out: BACE1 cell act. Aβ40 IC50
T1 construct: Human HEK293 cells which are stably transfected with a vector expressing a cDNA of the human APP wt gene (APP695); endogenous in cells; host or cells: HEK293 cells stably transfected with human APP695 (wt)
T1 sequence (P56817 46-501): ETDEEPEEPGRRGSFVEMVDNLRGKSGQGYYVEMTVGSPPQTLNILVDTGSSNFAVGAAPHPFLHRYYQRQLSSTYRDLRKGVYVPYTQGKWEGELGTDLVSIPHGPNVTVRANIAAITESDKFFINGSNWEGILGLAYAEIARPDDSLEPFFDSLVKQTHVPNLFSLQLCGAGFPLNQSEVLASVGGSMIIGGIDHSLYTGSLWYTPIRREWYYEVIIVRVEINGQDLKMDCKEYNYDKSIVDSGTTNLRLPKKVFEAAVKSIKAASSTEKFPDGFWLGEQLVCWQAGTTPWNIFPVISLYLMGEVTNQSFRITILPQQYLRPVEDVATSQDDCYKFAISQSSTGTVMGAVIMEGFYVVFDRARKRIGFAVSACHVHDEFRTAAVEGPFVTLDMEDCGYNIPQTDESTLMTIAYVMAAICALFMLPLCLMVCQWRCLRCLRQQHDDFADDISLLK
Procedure: b) Alternatively, the Abeta 40 AlphaLISA Assay can be used. The HEK293 APP cells were seeded in 96 well Microtiter plates in cell culture medium (Iscove's, plus 10% (v/v) fetal bovine serum, penicillin/streptomycin) to about 80% confluency and the compounds were added at a 3× concentration in 1/3 volume of culture medium (final DMSO concentration was kept at 1% v/v). After 18-20 hrs incubation at 37° C. and 5% CO2 in a humidified incubator, the culture supernatants were harvested for the determination of Aβ 40 concentrations using Perkin-Elmer Human Amyloid beta 1-40 (high specificity) Kit (Cat#AL275C).
In a Perkin-Elmer White Optiplate-384 (Cat#6007290), 2 ul culture supernatants were combined with 2 μl of a 10× AlphaLISA Anti-hAβ Acceptor beads+Biotinylated Antibody Anti-Aβ 1-40 Mix (50 μg/mL/5 nM). After 1 hour room temperature incubation, 16 μl of a 1.25× preparation of Streptavidin (SA) Donor beads (25 μg/mL) were added and incubated for 30 minutes in the Dark. Light Emission at 615 nm was then recorded using EnVision-Alpha Reader. Levels of Aβ 40 in the culture supernatants were calculated as percentage of maximum signal (cells treated with 1% DMSO without inhibitor). The IC50 values were calculated using the Excel XLfit software.

Compound	IC50 [µM]
NC1=N[C@@]2(C[C@@]3(CCCOC3)Oc3ccc(-c4cncc(Cl)c4)cc32)C(F)(F)CO1 [Example 29, (2′R,4R)-6′-(5-Chloropyridin-3-yl)-5,5-difluoro-5,5″,6,6″-tetrahydro-4″H-dispiro[1,3-oxazine-4,4′-chromene-2′,3″-pyran]-2-amine formate]	4.43
N#Cc1cccc(-c2ccc3c(c2)[C@@]2(C[C@@]4(CCCOC4)O3)N=C(N)OCC2(F)F)c1 [Example 30, 3-[(2′R,4R)-2-Amino-5,5-difluoro-5,5″,6,6″-tetrahydro-4″H-dispiro[1,3-oxazine-4,4′-chromene-2′,3″-pyran]-6′-yl]benzonitrile formate]	6.58
NC1=N[C@@]2(C[C@]3(CCCOC3)Oc3ccc(-c4cncc(Cl)c4)cc32)C(F)(F)CO1 [Example 31, (2′S,4R)-6′-(5-Chloropyridin-3-yl)-5,5-difluoro-5,5″,6,6″-tetrahydro-4″H-dispiro[1,3-oxazine-4,4′-chromene-2′,3″-pyran]-2-amine formate]	9
N#Cc1ccc(C(=O)Nc2ccc3c(c2)[C@@]2(C[C@@]4(CCCOC4)O3)N=C(N)OCC2(F)F)nc1 [Example 44, N-[(2′R,4R)-2-Amino-5,5-difluoro-5,5″,6,6″-tetrahydro-4″H-dispiro[1,3-oxazine-4,4′-chromene-2′,3″-pyran]-6′-yl]-5-cyanopyridine-2-carboxamide]	5.17
